# Reference: patent US11877553B2, “Effects of a plurality of mutations to improve herbicide resistance/tolerance in rice” (priority 2017, dated 2024)
# Assays:
# Assay type in all cases: in vivo, rice
# [1] = test system: single trait mutant lines (P1003A205V, R0146G654E); experiment: 16GH-T7 greenhouse Imazamox trial, injury in single trait mutant lines; settings: Imazamox 0.5× to 4× at about preflood stage, alone or 2 weeks after 1× Imazethapyr
# Text: (§1) FIG. 3A to FIG. 3I illustrate the results of Example 1: FIG. 3A control; FIG. 3B 0.5× Imazamox; FIG. 3C 1× Imazamox; FIG. 3D 2× Imazamox; FIG. 3E 4× Imazamox; FIG. 3F 1× Imazethapyr+0.5× Imazamox; FIG. 3G 1× Imazethapyr+1× Imazamox; FIG. 3H 1× Imazethapyr+2× Imazamox; FIG. 3I 1× Imazethapyr+4× Imazamox; Pots L to R: LF2-RTC2/LM1-RTC1, LF1-RTC2/LM1-RTC1, LF3-RTC2\LM4-RTC1, mutated line P1003A205V, mutated line R0146G654E, sensitive control commercial variety Cypress, commercial hybrid CLXL745.
# (§2) Trial consisted of 2 treatment regimens with Imazamox applications at approximately the preflood stage with rates of 0.5×, 1×, 2×, or 4×, either alone or 2 weeks following application of 1× Imazethapyr.
# (§3) FIG. 4 Representative Pots 4 Weeks Post Application of Imazamox.
# [2] = test system: RT IMI hybrids (LF2-RTC2/LM1-RTC1, LF1-RTC2/LM1-RTC1, LF3-RTC2\LM4-RTC1); experiment: 16GH-T7 greenhouse Imazamox trial, injury in RT IMI hybrids; settings: Imazamox 0.5×, 1×, 2× or 4× at about preflood stage, alone or 2 weeks after 1× Imazethapyr, any treatment
# Text: as §1, §2, §3
# A205V-G654E hybrids = experiment: 15SA-T9 IMI conversion efficacy trial; settings: 2 applications (2 leaf and preflood)
# Protocol: 2 leaf and preflood application of IMI herbicide on materials converted with RiceTec IMI traits and controls. All males included RTC1 (A205V) in their genome. Females with RTC2 (G654E) were not included due to limited seed numbers. Females were tested separately in 15GH-T8 using potted plant replications.
# [3] = test system: G654E (RTC2) homozygous line; experiment: 16-T7 log sprayer trial, Imazethapyr, homozygous G654E line; settings: single application, half-step log sprayer, rates 16× to 1/128×
# G654E/A205V hybrids = experiment: 16-T7 log sprayer trial, Imazethapyr, G654E/A205V hybrids; settings: single application, half-step log sprayer, rates 16× to 1/128×; either hybrid
# [4] = test system: heterozygous A205V hybrids; settings: 2 leaf and preflood application
# Text: Trial: 2 leaf and preflood application of Imazethapyr or Kifix™ (imazapic/imazapir) herbicide on materials converted with RiceTec IMI traits and commercial IMI control.
# [5] = test system: homozygous A205V (RTC1) mutant line (P1003A205V); experiment: 16-T7 log sprayer trial, Imazethapyr, homozygous A205V line; settings: single application, all tested rates 8× (48 oz/acre) and lower
SMILES,injury [1],injury [2],injury rates (A205V-G654E hybrids),% of injury 3 weeks post 3-4 leaf application [3],% of injury 3 weeks post 3-4 leaf application (G654E/A205V hybrids),tolerance as compared to the A205V-G654E hybrids [4],% of injury 3 weeks post 3-4 leaf application [5]
"COCc1cnc(C2=NC(C)(C(C)C)C(=O)N2)c(C(=O)O)c1 (stereo not shown) [Imazamox, imazamox]",injury was observed,No injury,–,–,–,–,–
"CCc1cnc(C2=NC(C)(C(C)C)C(=O)N2)c(C(=O)O)c1 (stereo not shown) [Imazethapyr, imazethapyr]",–,–,very low injury rates,lower than expected,no observed injury,reduced tolerance,below 10%
